Converted amounts (≈) assume the structure as drawn.
Test system: Escherichia coli ATCC 25922
Assay: Minimal Inhibitory Concentration (MIC) determination, broth microdilution (CLSI M07-A10)
Format: cell-based
Details: lowest concentration for complete growth inhibition (no visible growth); for MIC: Escherichia coli, ATCC25922, strain Escherichia coli ATCC 25922, 18-24 hours at 35±2° C., read-out: Escherichia coli growth inhibition MIC; for Escherichia coli growth inhibition MIC: strain Escherichia coli ATCC 25922, 18-24 hours at 35±2° C.
Method: Minimal Inhibitory Concentration (MIC) Determination:
The MIC of antibacterial compounds against multiple species and strains was determined using the broth microdilution method according to M07-A10 Clinical and Laboratory Standards Institute (CLSI) guidelines, using the appropriate broth medium. In short, the compound plates were prepared by dispensing 100 μL of each stock solution in the first well of a 96 well microtiter plate (MTP) at a concentration 100-fold higher than the final concentration desired in broth. Eleven serial 2-fold dilutions of the highest concentration were made in DMSO for new compounds and in water (or appropriate solution) for reference compounds [2]. 1 μL of each well was transferred in a new MTP, which served as the test plate by subsequent inoculation. This bacterial suspension was prepared from strains that were first sub-cultured on agar plates and incubated for 18-24 hours as appropriate. Following incubation, the inoculum was prepared from isolated colonies and adjusted to 0.5 McFarland turbidity standard (1 to 2×10^8 Colony Forming Units (CFU)/mL) in 0.9% saline. The bacterial suspension was then diluted 1:200 in appropriate sterile medium and within 15 minutes 100 μL/well were dispensed. Negative controls (lack of bacterial cells) and growth control wells (lack of compound) were included in all plates. MTPs were incubated for 18-24 hours at 35±2° C. in ambient air. The MIC value of each compound, expressed as μg/mL, was determined as the lowest concentration required for complete growth inhibition (no visible growth). • [1] CLSI (2015) Methods for dilution antimicrobial susceptibility tests for bacteria that grow aerobically; Approved Standard, Tenth Edition. CLSI Document M7-A10 (ISBN 1-56238-987-4). Wayne, PA: Clinical and Laboratory Standards Institute, 19087, USA. • [2] CLSI (2017) Performance Standards for Antimicrobial Susceptibility Testing; Twenty-Fifth Informational Supplement. CLSI Document M100-S27, CLSI, Wayne, Pennsylvania 19087, USA.
Table 1 provides the Minimal Inhibitory Concentrations (MIC) in micrograms per millilitre of the compounds of present invention obtained against the strain Escherichia coli ATCC 25922.

| Compound | MIC | Escherichia coli growth inhibition MIC |
| --- | --- | --- |
| CNCc1nc2cc3c(c(F)c2[nH]1)CC(CN1CCC2(CC1)CN(c1cnc4c(n1)NC(=O)CO4)C(=O)O2)C3 (single isomer, unassigned) [Example 59, 6-[8-[[8-Fluoro-2-(methylaminomethyl)-1,5,6,7-tetrahydrocyclopenta[f]benzimidazol-6-yl]methyl]-2-oxo-1-oxa-3,8-diazaspiro[4.5]decan-3-yl]-4H-pyrazino[2,3-b][1,4]oxazin-3-one] | 0.125 µg/mL (≈ 0.233 µM) |  |
| CNC(CO)c1nc2c(F)c3c(c(F)c2[nH]1)CC(CN1CCC2(CC1)CN(c1cnc4c(n1)NC(=O)CO4)C(=O)O2)C3 (single isomer, unassigned) [Example 66, 6-[8-[[4,8-Difluoro-2-[2-hydroxy-1-(methylamino)ethyl]-3,5,6,7-tetrahydrocyclopenta[f]benzimidazol-6-yl]methyl]-2-oxo-1-oxa-3,8-diazaspiro[4.5]decan-3-yl]-4H-pyrazino[2,3-b][1,4]oxazin-3-one] | 0.25 µg/mL (≈ 0.428 µM) |  |
| CNC(CO)c1nc2c(F)c3c(c(F)c2[nH]1)CC(CN1CCC2(CC1)CN(c1cnc4c(n1)NC(=O)CO4)C(=O)O2)C3 (single isomer, unassigned) [Example 67, 6-[8-[[4,8-Difluoro-2-[2-hydroxy-1-(methylamino)ethyl]-3,5,6,7-tetrahydrocyclopenta[f]benzimidazol-6-yl]methyl]-2-oxo-1-oxa-3,8-diazaspiro[4.5]decan-3-yl]-4H-pyrazino[2,3-b][1,4]oxazin-3-one] |  | 0.25 µg/mL |
| NCCn1nnc2cc3c(c(F)c21)CC(CN1CCC2(CC1)CN(c1cnc4c(n1)NC(=O)CO4)C(=O)O2)C3 (single isomer, unassigned) [Example 81, 6-[2-oxo-8-[[1-(2-aminoethyl)-8-fluoro-6,7-dihydro-5H-cyclopenta[f]benzotriazol-6-yl]methyl]-1-oxa-3,8-diazaspiro[4.5]decan-3-yl]-4H-pyrazino[2,3-b][1,4]oxazin-3-one] |  | ≤0.06 µg/mL |
| NCCn1nnc2cc3c(c(F)c21)CC(CN1CCC2(CC1)CN(c1cnc4c(n1)NC(=O)CO4)C(=O)O2)C3 (single isomer, unassigned) [Example 82, 6-[2-oxo-8-[[1-(2-aminoethyl)-8-fluoro-6,7-dihydro-5H-cyclopenta[f]benzotriazol-6-yl]methyl]-1-oxa-3,8-diazaspiro[4.5]decan-3-yl]-4H-pyrazino[2,3-b][1,4]oxazin-3-one] |  | 0.125 µg/mL |
| CNCCn1nc2cc(F)c3c(c2n1)CC(CN1CCC2(CC1)CN(c1cnc4c(n1)NC(=O)CO4)C(=O)O2)C3 (single isomer, unassigned) [Example 86, 6-[8-[[5-fluoro-2-[2-(methylamino)ethyl]-7.8-dihydro-6H-cyclopenta[e]benzotriazol-7-yl]methyl]-2-oxo-1-oxa-3,8-diazaspiro[4.5]decan-3-yl]-4H-pyrazino[2,3-b][1,4]oxazin-3-one] |  | ≤0.06 µg/mL |
| CNCCn1nc2cc(F)c3c(c2n1)CC(CN1CCC2(CC1)CN(c1cnc4c(n1)NC(=O)CO4)C(=O)O2)C3 (single isomer, unassigned) [Example 87, 6-[8-[[5-fluoro-2-[2-(methylamino)ethyl]-7,8-dihydro-6H-cyclopenta[e]benzotriazol-7-yl]methyl]-2-oxo-1-oxa-3,8-diazaspiro[4.5]decan-3-yl]-4H-pyrazino[2,3-b][1,4]oxazin-3-one] |  | 0.125 µg/mL |
| C[C@H](N)Cn1nc2cc(F)c3c(c2n1)CC(CN1CCC2(CC1)CN(c1cnc4c(n1)NC(=O)CO4)C(=O)O2)C3 (single isomer, unassigned) [Example 88] |  | ≤0.06 µg/mL |
| C[C@H](N)Cn1nc2cc(F)c3c(c2n1)CC(CN1CCC2(CC1)CN(c1cnc4c(n1)NC(=O)CO4)C(=O)O2)C3 (single isomer, unassigned) [Example 89] |  | 0.125 µg/mL |
| CNCc1nc2cc3c(c(F)c2o1)CC(CN1CCC2(CC1)CN(c1cnc4c(n1)NC(=O)CO4)C(=O)O2)C3 (single isomer, unassigned) [Example 94, 6-[8-[[8-fluoro-2-(methylaminomethyl)-6,7-dihydro-5H-cyclopenta[f][1,3]benzoxazol-6-yl]methyl]-2-keto-1-oxa-3,8-diazaspiro[4.5]decan-3-yl]-4H-pyrazino[2,3-b][1,4]oxazin-3-one] |  | 0.25 µg/mL |
| CNCc1nc2cc3c(c(F)c2o1)CC(CN1CCC2(CC1)CN(c1cnc4c(n1)NC(=O)CO4)C(=O)O2)C3 (single isomer, unassigned) [Example 95, 6-[8-[[8-fluoro-2-(methylaminomethyl)-6,7-dihydro-5H-cyclopenta[f][1,3]benzoxazol-6-yl]methyl]-2-keto-1-oxa-3,8-diazaspiro[4.5]decan-3-yl]-4H-pyrazino[2,3-b][1,4]oxazin-3-one] | 0.25 µg/mL (≈ 0.465 µM) |  |
| O=C1COc2ncc(N3CC4(CCN(CC5Cc6cc7nc(CN8CC(O)C8)oc7c(F)c6C5)CC4)OC3=O)nc2N1 (single isomer, unassigned) [Example 98, 6-[8-[[8-fluoro-2-[(3-hydroxyazetidin-1-yl)methyl]-6,7-dihydro-5H-cyclopenta[f][1,3]benzoxazol-6-yl]methyl]-2-oxo-1-oxa-3,8-diazaspiro[4.5]decan-3-yl]-4H-pyrazino[2,3-b][1,4]oxazin-3-one] | 0.5 µg/mL (≈ 0.863 µM) |  |
| O=C1COc2ncc(N3CC4(CCN(CC5Cc6cc7nc(CN8CC(O)C8)oc7c(F)c6C5)CC4)OC3=O)nc2N1 (single isomer, unassigned) [Example 99, 6-[8-[[8-fluoro-2-[(3-hydroxyazetidin-1-yl)methyl]-6,7-dihydro-5H-cyclopenta[f][1,3]benzoxazol-6-yl]methyl]-2-oxo-1-oxa-3,8-diazaspiro[4.5]decan-3-yl]-4H-pyrazino[2,3-b][1,4]oxazin-3-one] |  | 1 µg/mL |
| O=C1COc2ncc(N3CC4(CCN(CC5Cc6cc7nc(C8CNC8)oc7c(F)c6C5)CC4)OC3=O)nc2N1 (single isomer, unassigned) [Example 100, 6-[2-oxo-8-[[2-(azetidin-3-yl)-8-fluoro-6,7-dihydro-5H-cyclopenta[f][1,3]benzoxazol-6-yl]methyl]-1-oxa-3,8-diazaspiro[4.5]decan-3-yl]-4H-pyrazino[2,3-b][1,4]oxazin-3-one] | 0.125 µg/mL (≈ 0.227 µM) |  |
| O=C1COc2ncc(N3CC4(CCN(CC5Cc6cc7nc(C8CNC8)oc7c(F)c6C5)CC4)OC3=O)nc2N1 (single isomer, unassigned) [Example 101, 6-[2-oxo-8-[[2-(azetidin-3-yl)-8-fluoro-6,7-dihydro-5H-cyclopenta[f][1,3]benzoxazol-6-yl]methyl]-1-oxa-3,8-diazaspiro[4.5]decan-3-yl]-4H-pyrazino[2,3-b][1,4]oxazin-3-one] |  | 0.25 µg/mL |
| NCCc1nc2cc3c(c(F)c2o1)CC(CN1CCC2(CC1)CN(c1cnc4c(n1)NC(=O)CO4)C(=O)O2)C3 (single isomer, unassigned) [Example 102, 6-[8-[[2-(2-aminoethyl)-8-fluoro-6,7-dihydro-5H-cyclopenta[f][1,3]benzoxazol-6-yl]methyl]-2-oxo-1-oxa-3,8-diazaspiro[4.5]decan-3-yl]-4H-pyrazino[2,3-b][1,4]oxazin-3-one] |  | 0.125 µg/mL |
| NCCc1nc2cc3c(c(F)c2o1)CC(CN1CCC2(CC1)CN(c1cnc4c(n1)NC(=O)CO4)C(=O)O2)C3 (single isomer, unassigned) [Example 103, 6-[8-[[2-(2-aminoethyl)-8-fluoro-6,7-dihydro-5H-cyclopenta[f][1,3]benzoxazol-6-yl]methyl]-2-oxo-1-oxa-3,8-diazaspiro[4.5]decan-3-yl]-4H-pyrazino[2,3-b][1,4]oxazin-3-one] |  | ≤0.06 µg/mL |
| NCc1nc2cc3c(c(F)c2o1)CC(CN1CCC2(CC1)CN(c1cnc4c(n1)NC(=O)CO4)C(=O)O2)C3 (single isomer, unassigned) [Example 104, 6-[2-oxo-8-[[2-(aminomethyl)-8-fluoro-6,7-dihydro-5H-cyclopenta[f][1,3]benzoxazol-6-yl]methyl]-1-oxa-3,8-diazaspiro[4.5]decan-3-yl]-4H-pyrazino[2,3-b][1,4]oxazin-3-one] | 0.125 µg/mL (≈ 0.239 µM) |  |
| NCc1nc2cc3c(c(F)c2o1)CC(CN1CCC2(CC1)CN(c1cnc4c(n1)NC(=O)CO4)C(=O)O2)C3 (single isomer, unassigned) [Example 105, 6-[2-oxo-8-[[2-(aminomethyl)-8-fluoro-6,7-dihydro-5H-cyclopenta[f][1,3]benzoxazol-6-yl]methyl]-1-oxa-3,8-diazaspiro[4.5]decan-3-yl]-4H-pyrazino[2,3-b][1,4]oxazin-3-one] |  | 0.25 µg/mL |
| O=C1COc2ncc(N3CC4(CCN(CC5Cc6cc7nc([C@@H]8CCN8)oc7c(F)c6C5)CC4)OC3=O)nc2N1 (single isomer, unassigned) [Example 106] | 0.125 µg/mL (≈ 0.227 µM) |  |
